Active and inactive are the calls of the source. No cut-off for these calls is given here.
Legend:
[1] = Cytotoxicity against HEK293T cells assessed as inhibition of cell growth measured after 48 hrs by CCK8 assay; format: toxicity, cell-based, HEK-293T; settings: human
[2] = Antiviral activity against SARS-CoV-2 infected in HEK293T cells assessed as inhibition of SARS-CoV-2 RdRp in the presence of coelenterazine-h incubated for 24 hrs by Gaussia luciferase reporter assay; format: functional, cell-based; settings: Homo sapiens, HEK-293T
[3] = molecular target: Replicase polyprotein 1ab (Severe acute respiratory syndrome coronavirus 2) (UniProt P0DTD1); experiment: Inhibition of SARS-CoV-2 RdRp in HEK-293T cells at 10 uM measured after 24 hrs relative to control; format: cell-based
[4] = Cytotoxicity against Rhesus monkey LLC-MK2 cells incubated for 48 hrs by method; format: toxicity, cell-based, Macaca mulatta
[5] = molecular target: Replicase polyprotein 1ab (Severe acute respiratory syndrome coronavirus 2) (UniProt P0DTD1); experiment: Inhibition of SARS-CoV-2 RdRp mediated RNA synthesis in HEK-293T cells cotransfected with pCoV-GLuc and pCMV6-nsp12/nsp7/nsp8 assessed as reduction in plus strand RNA level by measuring GLuc RNA level for 24 hrs in the presence of coelenterazine-h by Gaussia luciferase reporter assay; format: cell-based; settings: dose 2-10 µM
[6] = molecular target: Replicase polyprotein 1ab (Severe acute respiratory syndrome coronavirus 2) (UniProt P0DTD1); experiment: (§1) Inhibition of SARS-CoV-2 RdRp mediated RNA synthesis in HEK-293T cells cotransfected with pCoV-GLuc and pCMV6-nsp12/nsp7/nsp8 assessed as reduction in minus strand RNA level at 10 uM by measuring GLuc RNA level for 24 hrs in the presence of coelenterazine-h by Gaussia luciferase reporter assay relative to control; format: cell-based
[7] = Cytotoxicity against human HCT-8 cells incubated for 48 hrs by CCK8 method; format: toxicity, cell-based
[8] = tested on: Human coronavirus NL63; experiment: Antiviral activity against HCoV-NL63 infected in Rhesus monkey LLC-MK2 cells at a MOI of 0.01 assessed as inhibition of viral replication measured after 120 hrs by MTS assay; format: functional, organism-based; settings: Human coronavirus NL63, LLC-MK2, 120 h
[9] = tested on: Human coronavirus OC43; experiment: Antiviral activity against HCoV-OC43 infected in human HCT-8 cells at a MOI of 0.1 assessed as inhibition of viral replication measured after 5 days by MTS assay; format: functional, organism-based; settings: Betacoronavirus 1, HCT-8, 120 h
[10] = molecular target: Replicase polyprotein 1ab (Severe acute respiratory syndrome coronavirus 2) (UniProt P0DTD1); experiment: as §1, with “plus” for “minus”; format: cell-based
[11] = molecular target: Replicase polyprotein 1ab (Severe acute respiratory syndrome coronavirus 2) (UniProt P0DTD1); experiment: Inhibition of SARS-CoV-2 RdRp mediated RNA synthesis in HEK-293T cells cotransfected with pCoV-GLuc and pCMV6-nsp12/nsp7/nsp8 assessed as reduction in minus strand RNA level by measuring GLuc RNA level for 24 hrs in the presence of coelenterazine-h by Gaussia luciferase reporter assay; format: cell-based; settings: dose 2-10 µM
[12] = molecular target: T1, Replicase polyprotein 1ab (Severe acute respiratory syndrome coronavirus 2, UniProt P0DTD1); experiment: Binding affinity to SARS-CoV-2 nsp12 expressed in Escherichia coli BL21 (DE3) cells using biotinylated EZ-link NHS-LC-LC assessed as dissociation constant at 6.25 to 100 uM incubated for 180 sec by BLI assay
[13] = tested on: Human coronavirus OC43; experiment: Potency index, ratio of PAP EC50 to test compound EC50 for antiviral activity against HCoV-OC43 infected in human HCT-8 cells assessed as reduction in virus-induced cytopathic effect measured after 120 hrs by MTS assay; format: functional
[14] = Selectivity index, ratio of CC50 for cytotoxicity against HEK293T cells assessed as inhibition of cell growth to EC50 for antiviral activity against SARS-CoV-2 infected in HEK293T cells assessed as inhibition of SARS-CoV-2 RdRp; format: toxicity, cell-based; settings: human, read-out: Ratio CC50/EC50
[15] = tested on: Human coronavirus NL63; experiment: Potency index, ratio of PAP EC50 to test compound EC50 for antiviral activity against HCoV-NL63 infected in Rhesus monkey LLC-MK2 cells assessed as reduction in viru-induced cytopathic effect measured after 120 hrs by MTS assay; format: functional
[16] = molecular target: T1, Replicase polyprotein 1ab; experiment: Inhibition of SARS-CoV-2 nsp14 in HEK-293T cells cotransfected with pCoV-GLuc incubated for 24 hrs in the presence of coelenterazine-h by Gaussia luciferase reporter assay; format: cell-based
[17] = molecular target: T1, Replicase polyprotein 1ab; experiment: Binding affinity to SARS-CoV-2 nsp12 expressed in Escherichia coli BL21 (DE3) cells using biotinylated EZ-link NHS-LC-LC assessed as dissociation constant incubated for 180 sec by BLI assay
[18] = molecular target: T1, Replicase polyprotein 1ab; experiment: Inhibition of his tagged SARS-CoV-2 nsp12 in HEK-293T cells cotransfected with pCoV-GLuc incubated for 24 hrs in the presence of coelenterazine-h by Gaussia luciferase reporter assay; format: cell-based
[19] = tested on: Human coronavirus OC43; experiment: Antiviral activity against HCoV-OC43(Rluc) infected in golden hamster BHK-21 cells assessed as inhibition of viral replication at 10 uM pre-infected with virus for 1 hrs followed by compound addition and measured after 24 hrs by luciferase assay; format: functional, organism-based
[20] = tested on: Human coronavirus OC43; experiment: Antiviral activity against HCoV-OC43 infected in golden hamster BHK-21 cells assessed as inhibition of viral infection at 10 uM measured after 24 hrs by luciferase assay; format: functional, organism-based
[21] = tested on: Human coronavirus OC43; experiment: Antiviral activity against HCoV-OC43(Rluc) infected in BHK-21 cells assessed as inhibition of viral infection at 10 uM pre-infected with virus for 2 hrs followed by compound addition measured after 24 hrs by luciferase assay; format: functional, organism-based
[22] = tested on: SARS-CoV-2; experiment: Antiviral activity against SARS-CoV-2 C-Tan-n-CoV Wuhan infected in African green monkey Vero E6 cells assessed as inhibition of viral replication incubated for 24 hrs by qRT-PCR analysis; format: functional, organism-based; settings: Severe acute respiratory syndrome coronavirus 2, C-Tan-n-CoV Wuhan, Vero C1008, 24 h
[23] = molecular target: Replicase polyprotein 1ab (Severe acute respiratory syndrome coronavirus 2) (UniProt P0DTD1); experiment: Inhibition of SARS-CoV-2 3CLpro in HEK293T cells at 2 to 20 uM measured after 48 hrs by Western blot analysis; format: cell-based; settings: dose 2-20 µM

Structure (SMILES)	CC50 at 48 h [1] [µM]	EC50 [2] [µM]	inhibition [3] [%]	further results
Nc1ccc(/N=N/c2cccc3c2CCCC3)c(N)n1	78.9	7.35	71.8	
Nc1ccc(/N=N/c2ccccc2)c(NC(=O)[C@@H](N)Cc2ccccc2)n1	> 100	8.77	56.7	
Nc1ccc(/N=N/c2ccccc2)c(NC(=O)[C@@H]2CCCN2)n1	> 100	3.78	72.9	
Nc1cc(-c2ccccc2)c(/N=N/c2ccccc2)c(N)n1	> 100	8.26	65.6	
Nc1ccc(/N=N/c2ccc(Cc3ccccc3)cc2)c(N)n1	> 100	6.47	59.3	
CC(C)(C)OC(=O)NCC(=O)Nc1nc(N)ccc1/N=N/c1ccccc1	> 100	1.7	77.4	
CCC(CC)COC(=O)[C@H](C)N[P@](=O)(OC[C@H]1O[C@@](C#N)(c2ccc3c(N)ncnn23)[C@H](O)[C@@H]1O)Oc1ccccc1	> 100			CC50 at 48 h [4]: > 100 µM; inhibition [5]: Dose-dependent-effect; inhibition [6]: 80%; CC50 at 48 h [7]: > 100 µM; EC50 [8]: 2.67 µM; EC50 [9]: 1.89 µM; inhibition [10]: 80%; inhibition [11]: Dose-dependent-effect
CC(C)(C)OC(=O)N1CCC[C@H]1C(=O)Nc1nc(N)ccc1/N=N/c1ccccc1	> 100	1.11	88.5	CC50 at 48 h [4]: > 100 µM; Kd [12]: 2.41 µM; inhibition [5]: Dose-dependent-effect; inhibition [6]: 90%; Ratio EC50 [13]: 3.28; selectivity ratio [14]: 6.64; CC50 at 48 h [7]: > 100 µM; Ratio EC50 [15]: 1.85; EC50 [8]: 2.99 µM; EC50 [16]: 1.36 µM; EC50 [9]: 1.43 µM; Kd [17]: Dose-dependent-effect; EC50 [18]: 1.11 µM; inhibition [11]: Dose-dependent-effect
C[C@H](N)C(=O)Nc1nc(N)ccc1/N=N/c1ccccc1			48.2	
Cl.Nc1ccc(/N=N/c2ccccc2)c(N)n1 [PHENAZOPYRIDINE HYDROCHLORIDE]	> 100	7.37	50	CC50 at 48 h [4]: > 100 µM; Kd [12]: 5 µM; inhibition [19]: Active; Minor Effects Was Observed; inhibition [20]: Active; inhibition [5]: Dose-dependent-effect; inhibition [21]: Active; EC50 [22]: 5.37 µM; selectivity ratio [14]: > 13.6; CC50 at 48 h [7]: > 100 µM; inhibition [23]: inactive; EC50 [8]: 5.52 µM; EC50 [16]: 8.01 µM; EC50 [9]: 4.69 µM; Kd [17]: Dose-dependent-effect; inhibition [10]: 90%; EC50 [18]: 7.37 µM; inhibition [11]: Dose-dependent-effect
Nc1ccc(/N=N/c2ccc(Br)cc2)c(N)n1	> 100	8.61	71.8	
COc1ccc(/N=N/c2ccc(N)nc2N)cc1			48	
Cc1ccc(/N=N/c2ccc(N)nc2N)cc1	> 100	8.59	59.1	
CC(C)(C)OC(=O)N[C@@H](Cc1c[nH]c2ccccc12)C(=O)Nc1nc(N)ccc1/N=N/c1ccccc1	79.2	3.79	79.8	
CSCC[C@H](N)C(=O)Nc1nc(N)ccc1/N=N/c1ccccc1	> 100	7.26	55.3	
Nc1ccc(/N=N/c2ccc([N+](=O)[O-])cc2)c(N)n1			45.8	

Structure (SMILES)	CC50 at 48 h [1] [µM]	EC50 [2] [µM]	inhibition [3] [%]	further results
CSCC[C@H](NC(=O)OC(C)(C)C)C(=O)Nc1nc(N)ccc1/N=N/c1ccccc1	> 100	1.33	83	inhibition [5]: Dose-dependent-effect; selectivity ratio [14]: 75.2; EC50 [16]: 1.38 µM; EC50 [18]: 1.33 µM; inhibition [11]: Dose-dependent-effect
CN(C)c1ccc(/N=N/c2ccc(N)nc2N)cc1	> 100	9.52	50.1	
Nc1ccc(/N=N/c2ccc(C(F)(F)F)cc2)c(N)n1	> 100	6.32	74.9	
NCC(=O)Nc1nc(N)ccc1/N=N/c1ccccc1	> 100	9.28	52.4	
CC(C)(C)OC(=O)N[C@@H](Cc1ccccc1)C(=O)Nc1nc(N)ccc1/N=N/c1ccccc1	> 100	2.64	79.8	
Nc1ccc(/N=N/c2ccc(Cl)cc2)c(N)n1	> 100	7.64	64.5	
Nc1cc(Br)c(/N=N/c2ccccc2)c(N)n1			41.9	
Oc1ccc(/N=N/c2ccccc2)cc1			45.4	
Nc1ccc(/N=N/c2ccc(OCc3ccccc3)cc2)c(N)n1	> 100	7.16	65.3	
Cc1cc(N)nc(N)c1/N=N/c1ccccc1			49.9	
Nc1nc(N)c(/N=N/c2ccccc2)cc1Br	> 100	13.3	51.1	
Nc1nc(N)c(/N=N/c2ccccc2)cc1/N=N/c1ccccc1			46	
C[C@H](NC(=O)OC(C)(C)C)C(=O)Nc1nc(N)ccc1/N=N/c1ccccc1	> 100	1.42	86	inhibition [5]: Dose-dependent-effect; selectivity ratio [14]: 70.4; EC50 [16]: 1.73 µM; EC50 [18]: 1.42 µM; inhibition [11]: Dose-dependent-effect
Nc1ccc(/N=N/c2ccccc2)c(NC(=O)[C@@H](N)Cc2c[nH]c3ccccc23)n1	81.9	1.64	82.7	inhibition [5]: Dose-dependent-effect; selectivity ratio [14]: 50; EC50 [16]: 1.53 µM; EC50 [18]: 1.64 µM; inhibition [11]: Dose-dependent-effect
Nc1ccc(/N=N/c2ccc(F)cc2)c(N)n1	> 100	8.73	64.9	

Reference: ChEMBL document CHEMBL6109081, “Discovery and optimization of phenazopyridine hydrochloride as novel SARS-CoV-2 RdRp inhibitors” (Eur J Med Chem, 2025)
